In assay [1] the test system is Arabidopsis thaliana wild-type. Put plainly: Hypocotyl growth assay under reduced light. The class given is in vivo. The following applies: 100 μM; for Hypocotyl growth promotion relative to A1 / Effect on hypocotyl growth in wild type: reduced light; for New length (cm) / Relative growth (cm) / New Length: hypocotyl; for New length (cm) / New Length / Effect on hypocotyl growth in wild type: three days; for New length (cm): trials 1, 2, 3 and SAM each with own DMSO control; for New Length: in cm. The source says: (§1) Arabidopsis thaliana wild-type seeds were from laboratory stocks of Columbia (Col-0) and Landsberg erecta (Ler-0) accessions. Arabidopsis thaliana is a dicot. The mutants of gid1 (J. Griffiths, et al., Plant Cell, 2006, 18, 3399-3414) were obtained from Dr. Steve Thomas (Rothamsted Research, UK) and were in a Col-0 background, whilst the della quintuple mutant (S. H. Feng et al. Nature, 2008, 451: 475-479) and ga1-5 (I. Fridborg et al. Plant Cell, 1999, 11: 1019-1031) were in a Ler-0 background and was obtained from the Nottingham Arabidopsis Stock Centre (NASC). The A. thaliana line expressing RGA-GFP (A. L. Silverstone et al. The Plant Cell, 2001, 13: 1555-1565), Col-0 background was obtained from Prof. Keith Lindsey (Durham University, UK). Seeds were plated out 1×MS medium pH 5.8 (T. Murashige and F. Skoog (1962) Physiologia Plantarum 15: 473-497) in petri dishes with a concentration of either 0.8% or 1.2% (w/v) phytoagar for root and hypocotyl measurements, respectively. After sowing seeds were stratified on plates at 4° C. for a minimum of 48 h to achieve synchronous germination. Seedlings were grown for either 7 or 2 days for root and hypocotyl measurements, respectively, prior to treatment with chemicals. For hypocotyl measurements, seeds were sown on nylon mesh (acid resistant monofilament nylon filter mesh fabric; GZ, model number H20M). Seedling were grown in a Percival (CU-36L5D, CLF plant climatics, Emersacker, Germany) with a photoperiod of 16/8 h with a light intensity of either 150 μmol m^2 s^−1 or 50 μmol m^2 s^−1 for root and hypocotyl measurements, respectively, and a temperature of 20±1° C.
After growing as described above seedlings for root assays were transferred to 1.2% (w/v) agar plates containing each chemical at a final concentration of 100 μM (the addition of the chemicals was performed when media had cooled to 50° C. after autoclaving), with an equivalent concentration of DMSO as control. At this stage the positions of the root tips were marked on the petri dish. The plants were subsequently grown vertically and after a further 5 days images of the plates were scanned and the root growth that occurred during the 5 days on chemicals was measured using ImageJ software. 18 seedlings were measured for each treatment. For hypocotyl measurements the assay performed was adapted from de Lucas et al. (2008, supra). After growing seedlings as described above, the nylon mesh was transferred across to the plates containing chemical. The plants were then placed in vertical orientation for three days under reduced light intensity (by covering plates with 2 layers of 80 g·m^2 white paper) before the plates were scanned. The measurement of hypocotyl was done using ImageJ software. At least 15 seedlings were measured for each plate.
To determine the mechanism of A1 action via the GA/DELLA signaling pathway, the response of A1 in a series of GA synthesis/signalling mutants was investigated. For these assays the focus was on hypocotyl growth, because it is well established that DELLA can inhibit the binding of PIFs to their target promoter leading to a reduction in GA-regulated hypocotyl growth (A. Castillon, H. Shen and E. Huq (2007) Trends in Plant Science, 12: 514-521.; de Lucas et al. 2008, supra; S. H. Feng et al. 2008, supra. To establish the use of A1 in this assay, hypocotyl growth was first tested by growing the seedlings on agar plates containing A1, with GA and PAC used as positive and negative controls, respectively, for three days in reduced light conditions to achieve a balance between maximum and minimum hypocotyl growth. […] Having established the hypocotyl assay, DELLA-dependence of the A1 effect was then confirmed genetically. To test this, a mutant line that lacks all DELLA (GAI, RGA, RGL1, RGL2 and RGL3) function was used.
The effect of additional compounds on hypocotyl growth was investigated using the same methods as described above (100 μM of each compound was used). […]

For assay [2], the system named is Arabidopsis thaliana wild-type. Put plainly: Root growth assay, seedlings on agar plates containing chemical. The following applies: 100 μM; for Root growth activity relative to A1: 7-day old seedlings, 5 days. The class given is in vivo.
Method: Arabidopsis thaliana wild-type seeds were from laboratory stocks of Columbia (Col-0) and Landsberg erecta (Ler-0) accessions. […] Seeds were plated out 1×MS medium pH 5.8 (T. Murashige and F. Skoog (1962) Physiologia Plantarum 15: 473-497) in petri dishes with a concentration of either 0.8% or 1.2% (w/v) phytoagar for root and hypocotyl measurements, respectively. After sowing seeds were stratified on plates at 4° C. for a minimum of 48 h to achieve synchronous germination. Seedlings were grown for either 7 or 2 days for root and hypocotyl measurements, respectively, prior to treatment with chemicals. […] Seedling were grown in a Percival (CU-36L5D, CLF plant climatics, Emersacker, Germany) with a photoperiod of 16/8 h with a light intensity of either 150 μmol m^2 s^−1 or 50 μmol m^2 s^−1 for root and hypocotyl measurements, respectively, and a temperature of 20±1° C.
The effect of the A1 analogues on root and hypocotyl growth was investigated. In order to allow a direct comparison with eW5, the concentration used in these assays was 100 μM. The root growth assay was performed by treating the 7-day old seedlings on chemical plates for 5 days.
A further assay deals with RGA-GFP. The experiment in a line: DELLA degradation: confocal imaging of RGA-GFP fluorescence in roots. The class given is in vivo, Arabidopsis thaliana. The following applies: 100 μM; for GFP fluorescence / stability of DELLA protein in roots: A1 imaged after 2 and 24 hours, PAC applied 48 hours before.
Text: as §1
Confocal microscopy was performed using a Leica SP5 CLSM FLIM FCCS (Leica Microsystems, Wetzlar, Germany). GFP:RGA seeds were germinated and grown on 1.2% MS vertically for 7 days, and then incubated in chemical solution (at the final concentration of 100 μM) for 2 and 24 hours before being analyzed. […] The excitation wavelength of the argon laser was 488 nm and the emission was detected using a bypass filter of 495-550 nm. […]

For the next assay, the system named is plant. The following applies: known calmodulin inhibitors; cited from earlier work.
The test system of the next assay is ga1-5 mutant. The experiment in a line: Hypocotyl growth assay in GA biosynthesis mutant ga1-5. The assay is classed as in vivo, Arabidopsis thaliana. The following applies: 100 μM, three days. The source says:
(§2) Arabidopsis thaliana wild-type seeds were from laboratory stocks of Columbia (Col-0) and Landsberg erecta (Ler-0) accessions. Arabidopsis thaliana is a dicot. The mutants of gid1 (J. Griffiths, et al., Plant Cell, 2006, 18, 3399-3414) were obtained from Dr. Steve Thomas (Rothamsted Research, UK) and were in a Col-0 background, whilst the della quintuple mutant (S. H. Feng et al. Nature, 2008, 451: 475-479) and ga1-5 (I. Fridborg et al. Plant Cell, 1999, 11: 1019-1031) were in a Ler-0 background and was obtained from the Nottingham Arabidopsis Stock Centre (NASC). The A. thaliana line expressing RGA-GFP (A. L. Silverstone et al. The Plant Cell, 2001, 13: 1555-1565), Col-0 background was obtained from Prof. Keith Lindsey (Durham University, UK). […]
(§3) After growing as described above seedlings for root assays were transferred to 1.2% (w/v) agar plates containing each chemical at a final concentration of 100 μM (the addition of the chemicals was performed when media had cooled to 50° C. after autoclaving), with an equivalent concentration of DMSO as control. […] The plants were subsequently grown vertically and after a further 5 days images of the plates were scanned and the root growth that occurred during the 5 days on chemicals was measured using ImageJ software. 18 seedlings were measured for each treatment. […] At least 15 seedlings were measured for each plate. […]

A further assay deals with della quintuple mutant. Put plainly: Hypocotyl growth assay in della quintuple mutant. The assay is classed as in vivo, Arabidopsis thaliana.
Text: as §2, §3

A further assay concerns Arabidopsis thaliana. Put plainly: Fresh and dry weight measurements of treated seedlings. The class given is in vivo. The following applies: 5 days chemical treatment. The method, then:
Leaves and roots fresh weights of 12 days old seedlings, that were subjected to 5 days chemical treatment as described above, were measured. Dry weights were recorded after placing the plant material in oven at 65° C. for 3 days. The measurements were performed on 15 seedlings for each treatment.
Having discovered the root growth-promoting properties of A1, we wished to establish if the effects were limited to the roots, or whether A1 could also promote growth of shoot tissue. We were also interested to see if the effect was on fresh weight, dry weight or both. To investigate this, plants were treated with A1, divided into shoot and root material and the fresh and dry weight recorded.

Another assay relates to gid1 double mutants. The experiment in a line: Hypocotyl growth assay in GA receptor gid1 double mutants. The assay is classed as in vivo, Arabidopsis thaliana.
Text: as §2, §3

The next assay has as its system maize. The experiment in a line: Growth of a monocot on application of A1. The class given is in vivo.
The mark [3] stands for this setting: relative to the DMSO control of the same trial.

Structures are written as SMILES. Structures can show the parent of a compound that is named as a salt.

Turning to `Cl.NCCNS(=O)(=O)Cc1ccccc1` [Compound E3, Alpha-toluenesulfonylethylene Diamine Hydrochloric Acid Salt], in [1], the “Hypocotyl growth promotion relative to A1” value is listed as “less hypocotyl growth promotion relative to A1”. In addition, the “Root growth activity relative to A1” value in assay [2] is “higher activity than A1”.
Turning to `CC(C)(C)[C@@H](O)[C@@H](Cc1ccc(Cl)cc1)n1cncn1` (racemic) [PAC, paclobutrazol, reference compound], in the assay with RGA-GFP, the “GFP fluorescence / stability of DELLA protein in roots” value is on record as “stabilized the DELLA protein”.
With `CN(CCN)S(=O)(=O)c1cccc2ccccc12.Cl` [Compound E5, N-methyl-N-naphthylsulfonyl-1,2-ethanediamine Hydrochloric Acid Salt], in assay [1], the “Hypocotyl growth promotion relative to A1” value was “biggest effect”. For the same compound, the “Root growth activity relative to A1” value in assay [2] is on record as “biggest effect”.
With `NCCCCCCNS(=O)(=O)c1cccc2c(Cl)cccc12` [Compound W7, N-(6-Aminohexyl)-5-chloro-1-naphthalenesulfonamide], in the assay on plant, the “Effect on plant growth” value was “inhibit plant growth”.
Regarding `Cc1ccc(CS(=O)(=O)NCCN)cc1.Cl` [Compound E4, Alpha-p-xylenesulfonylethylene Diamine Hydrochloric Acid Salt], the “Hypocotyl growth promotion relative to A1” value in assay [1] was “less hypocotyl growth promotion relative to A1”. Further, in assay [2], the “Root growth activity relative to A1” value is “higher activity than A1”.
For the compound `NCCCCCCNS(=O)(=O)c1cccc2ccccc12` [Compound W5, N-(6-Aminohexyl)-1-naphthalenesulfonamide], the “Effect on plant growth” value in the assay on plant is listed as “inhibit plant growth”.
As for `CCOCCOc1ccc2ccccc2c1S(=O)(=O)NCCN.Cl` [JAR144, N-(2′-aminoethyl)-2-(2″-ethoxyethoxy)naphthalene-1-sulfonamide Hydrogen Chloride], the “New length (cm)” value in [1] came out at 0.6007 cm. Also, the “Relative growth (cm)” value in assay [1] (setting [3]) is on record as 0.4927.
The matching figures for `O=S(=O)(NCCO)c1cccc2ccccc12` [JAR88, N-(2-hydroxyethyl)naphthalene-1-sulfonamide]: 0.2827 cm and −0.2975.
`NCCNS(=O)(=O)c1ccccc1F` [JAR480, N-(2′-aminoethyl)-2-fluorobenzene-1-sulfonamide Hydrochloride]: the “New Length” value in assay [1] was 0.8424. Moreover, the “Relative growth (cm)” value in assay [1] (relative to DMSO control) turned out to be 0.2289.
In the case of `CCCCCCOc1ccccc1S(=O)(=O)NCCN.Cl` [JAR73, N-(2′-aminoethyl)-2-hexoxybenzene-1-sulfonamide Hydrogen Chloride], the “New length (cm)” value in [1] is reported as 0.202 cm. Moreover, the “Relative growth (cm)” value in assay [1] (setting [3]) was −0.1618.
For `COc1ccc(S(=O)(=O)NCCN)cc1.Cl` [JAR71, N-(2′-aminoethyl)-4-methoxybenzene-1-sulfonamide Hydrogen Chloride], in that order: 0.331 cm and 0.3734.
For `Cl.NCCNS(=O)(=O)c1cccc2ccccc12` [eW5, 2′-Amino-1′-(1-naphthylsulfonylamino)Ethane Hydrochloric Acid Salt], the “Recovery of hypocotyl elongation in ga1-5” value in the assay with ga1-5 mutant is on record as “could not recover hypocotyl elongation”. In addition, in assay [1], the “Effect on hypocotyl growth in wild type” value was “increased the hypocotyl length” and the “New Length” value is listed as 0.9253. Also, the “Effect on hypocotyl growth in wild type” value in [1] (listed as A1) is recorded as “stimulated hypocotyl growth in a manner very similar to GA”. Further, the “Relative growth (cm)” value in assay [1] (relative to DMSO control) was found to be 0.3497. Besides, in the assay with RGA-GFP, the “Time after which the DELLA degradation response could be observed” value came to 2 h and the “GFP fluorescence / stability of DELLA protein in roots” value is “reduced GFP fluorescence”. The “Effect on hypocotyl growth in mutant lacking all DELLA function” value with della quintuple mutant was “no promotion of hypocotyl growth was observed”. Also, in the assay on Arabidopsis thaliana (12 days old seedlings), the “Fresh weight of roots and shoots” value is reported as “increased”. Further, the “Dry:fresh weight ratio in roots and shoots” value in the assay on Arabidopsis thaliana (dried at 65° C. for 3 days) is “increased”. In the assay with gid1 double mutants, the “Effect on hypocotyl length in gid1 double mutants compared with wild type” value was “the effect was reduced in the mutants”. Moreover, the “Root, stem and leaf growth in maize” value in the assay on maize was “Improved root, stem (hypocotyl in particular) and leaf growth”. In assay [2] (5 days on chemical), the “Effect on root growth compared to DMSO control” value is reported as “promoted root growth”.
Turning to `CCOC(=O)CN(CCN)S(=O)(=O)c1cccc2ccccc12.Cl` [SAM3, ethyl 2″-[N-(2′-aminoethyl)naphthalene-1-sulfonamido]acetate Hydrogen Chloride], in assay [1], the “New length (cm)” value is 0.272 cm. The “Relative growth (cm)” value in [1] (setting [3]) worked out at 0.3807.
